Experimental data: US8518958B2, “Pyrido [2,3-D] pyrimidines and their use as kinase inhibitors” (Forma Therapeutics, Inc., priority 2006, dated 2013)

Key:
HT-29 tumor cells = test: Anti-proliferative activity, SRB assay; assay type: cell-based, human; conditions: Homo sapiens, HT-29, 72 h, 72 hours exposure, read-out: CELLULAR IC50 HT-29
Protocol: We observed the surprising finding that compounds of the invention were useful in inhibiting proliferation of HT-29 tumor cells (see Table 3).
3,000-15,000 cells/well were exposed to the test compounds at various concentrations appropriate to determine an IC50, for 72 hours, and cell proliferation was measured using the SRB assay according to Shekan et al (J Natl Cancer Inst (1990) 82, 1107-112) in order to estimate the IC50 values shown in Table 3. Briefly, cells were plated in 96 well dishes 24 hours prior to compound addition. The assay was terminated with the addition of cold TCA to a final concentration of 10% and the plates were incubated for one hour at 4° C. The plates were then washed 5 times with water and 100 μl of a Sulforhodamine B solution (4%) was added to each well. The plate was then incubated for 10 minutes at room temperature before removal of unbound dye by washing with 1% acetic acid. The bound dye was solubilized with 10 mM Trizma base and the absorbance read at OD570. Inhibitory activity of the compounds was calculated as % inhibition of cell proliferation compared to cells treated with the solvent (DMSO).

B-Raf delta1-415 = B-Raf delta1-415 (Homo sapiens, UniProt P15056); test: B-Raf kinase inhibition (MAPH filter plate, 33P-ATP, MEK1 substrate); conditions: read-out: Biochemical IC50 B-Raf
Chain of B-Raf delta1-415 (P15056 416-766): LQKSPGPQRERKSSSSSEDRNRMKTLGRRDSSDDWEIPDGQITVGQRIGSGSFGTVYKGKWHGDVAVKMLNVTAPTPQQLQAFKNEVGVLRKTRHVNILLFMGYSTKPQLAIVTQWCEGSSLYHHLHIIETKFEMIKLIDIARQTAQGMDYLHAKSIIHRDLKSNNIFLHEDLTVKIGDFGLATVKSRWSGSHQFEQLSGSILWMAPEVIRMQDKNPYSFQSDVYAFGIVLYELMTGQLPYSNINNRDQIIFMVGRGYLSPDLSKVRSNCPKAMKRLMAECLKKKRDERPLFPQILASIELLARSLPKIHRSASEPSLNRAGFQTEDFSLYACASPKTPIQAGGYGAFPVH
Source text: We characterized the in vitro inhibitory activity against protein kinases of compounds of the present invention by determining their IC50 values (see Table 2).
Kinase: B-Raf delta1-415 (e.g., Upstate Cat. No. 14-530)
Reaction Temperature: room temperature
Assay Plate: 96 well U bottom plate (Greiner, 650161)
MultiScreen-PH Plate: 96 well MAPH Filter Plates (Millipore, MAPHNOB50)
Filter Washing Solution: 0.75% H3PO4
Szintilation Liquid: Supermix Liquid Szintillator (PerkinElmer, 1200-439)
Negative Control (C−): 100 mM EDTA, no Inhibitor
Positive Control (C+): no Inhibitor
Reaction Buffer: 20 mM Mops, pH 7.0 • 10 mM MgCl2 • 0.4 mM MnCl2 • 100 mM NaCl • 1 mM DTT • 0.01% NP40
Final Assay Concentrations:
Kinase: Kinase conc. yielding 50% substrate turnover as determined in titration experiment.
Adenosine 5′-[γ-^33P]triphosphate: 12.5 μCi/ml (Amersham Biosciences, BF1000)
Pipetting Sequence: • 1) Add 10 μl 4-fold concentrated substrate in 3-fold concentrated reaction buffer to each well of assay plate • 2) Add 10 μl 4-fold concentrated inhibitor in 4% DMSO in H2O to each well except to C− and C+ wells (starting point: final inhibitor concentration 10 μM; IC50 determination based on dilution series) • 3) Add 10 μl 4% DMSO in H2O to C− and C+ wells • 4) Add 10 μl 500 mM EDTA in H2O to C− wells • 5) Add 10 μl 50 μCi/ml adenosine 5′-[γ-^33P]triphosphate in H2O+4-fold cold ATP to each well • 6) Add 10 μl 4-fold concentrated kinase in reaction buffer to each well • 7) Incubate 1 hr at room temperature • 8) Add 10 μl 50 mM EDTA in H2O to each well except to C− wells • 9) Prepare MAPH plates by adding 200 μl 0.75% H3PO4 to each well • 10) Exhaust 0.75% H3PO4 using Millipore vacuum station • 11) Add 60 μl 0.75% H3PO4 to each well of MAPH filter plate • 12) Transfer 30 μl sample per well from assay plate to corresponding well of MAPH filter plate • 13) Incubate 30 min at room temperature • 14) Wash each well of MAPH filter plates 3× with 200 μl 0.75% H3PO4 using Millipore vacuum station • 15) Add 20 μl scintillation liquid to each well of MAPH filter plate • 16) Seal MAPH filter plate • 17) Store MAPH filter plate 30 min in darkness • 18) Quantify radioactivity using scintillation counter (MicroBeta, Perkin-Elmer)

| SMILES | IC50 (HT-29 tumor cells) [nM] | IC50 (B-Raf delta1-415) [nM] |
| --- | --- | --- |
| COn1c(=O)c(-c2c(Cl)cccc2Cl)cc2cnc(Nc3ccon3)nc21 [Compound 85, 6-(2,6-Dichlorophenyl)-2-(isoxazol-3-yl)-amino-8-methoxy-pyrido[2,3-d]pyrimidin-7-one] | < 10000 | < 500 |
| CC(C)(C)On1c(=O)c(Br)cc2cnc(Nc3ccccc3)nc21 [Compound 239] | > 10000 | > 10000 |
| CC(C)On1c(=O)c(-c2ccccc2Cl)cc2cnc(Nc3ccccc3)nc21 [Compound 65] | > 10000 | > 10000 |
| COCCN(C)C(=O)c1cc(Nc2ncc3cc(-c4c(Cl)cccc4Cl)c(=O)n(OC)c3n2)cn1C [Compound 154, 6-(2,6-Dichlorophenyl)-8-methoxy-2-(5-N-(2-methoxyethyl)-N-methyl-aminocarbonyl-1-methyl-pyrrol-3-yl)-amino-pyrido[2,3-d]pyrimidin-7-one] | < 1000 | < 500 |
| COn1c(=O)c(-c2c(Cl)cccc2Cl)cc2cnc(Nc3cc(C(=O)NCCOC(=O)[C@@H](N)C(C)C)n(C)c3)nc21 [Compound 112, 2-(5-(2-(2-(S)-2-Amino-3-methylbutanoyloxy)ethyl)aminocarbonyl-1-methyl-pyrrol-3-yl)-amino-6-(2,6-dichlorophenyl)-8-methoxy-pyrido[2,3-d]pyrimidin-7-one] | < 1000 | < 500 |
| COn1c(=O)c(-c2c(Cl)cccc2Cl)cc2cnc(Nc3cc(C(=O)NCCCN4CCCC4)n(C)c3)nc21 [Compound 95] | < 1000 | < 500 |
| COn1c(=O)c(-c2c(Cl)cccc2Cl)cc2cnc(Nc3cc(C(=O)N(C)CCOC(=O)c4ccccc4)n(C)c3)nc21 [Compound 141] | < 1000 | < 500 |
| COn1c(=O)c(-c2c(Cl)cccc2Cl)cc2cnc(NCCO)nc21 [Compound 102, 6-(2,6-Dichlorophenyl)-2-hydroxyethylamino-8-methoxy-pyrido[2,3-d]pyrimidin-7-one] | < 10000 | < 500 |
| COn1c(=O)c(-c2c(Cl)cccc2Cl)cc2cnc(Nc3cc(C(=O)NC[C@@H](O)CO)n(C)c3)nc21 [Compound 117, 6-(2,6-Dichlorophenyl)-2-(5-(2-(R)-2,3-dihydroxyethylamino)carbonyl-1-methyl-pyrrol-3-yl)-amino-8-methoxy-pyrido[2,3-d]pyrimidin-7-one] | < 10000 | < 100 |
| COn1c(=O)c(-c2c(Cl)cccc2Cl)cc2cnc(Nc3ccccc3)nc21 [Compound 174, 6-(2,6-Dichlorophenyl)-8-methoxy-2-phenylamino-pyrido[2,3-d]pyrimidin-7-one] | < 1000 | < 1000 |
| COn1c(=O)c(-c2c(Cl)cccc2Cl)cc2cnc(Nc3cccc(S(=O)(=O)NCCO)c3)nc21 [Compound 126, 6-(2,6-Dichlorophenyl)-2-(3-(2-hydroxyethyl)aminosulfonyl-phenyl)-amino-8-methoxy-pyrido[2,3-d]pyrimidin-7-one] | < 1000 | < 100 |

Further lines, results first:

| IC50 (HT-29 tumor cells) [nM] | IC50 (B-Raf delta1-415) [nM] | SMILES |
| --- | --- | --- |
| < 1000 | < 100 | CNS(=O)(=O)Cc1ccc(Nc2ncc3cc(-c4c(Cl)cccc4Cl)c(=O)n(OC)c3n2)cc1 [Compound 125, 6-(2,6-dichlorophenyl)-8-methoxy-2-(4-(methylaminosulfonylmethyl)phenyl)-amino-pyrido[2,3-d]pyrimidin-7-one] |
| < 1000 | < 100 | COn1c(=O)c(-c2c(F)cccc2Cl)cc2cnc(Nc3ccc(N4CCNCC4)c(Cl)c3)nc21 [Compound 199, 6-(2-Chloro-6-fluorophenyl)-2-(3-chloro-4-piperazinophenyl)-amino-8-methoxy-pyrido[2,3-d]pyrimidin-7-one] |
| < 1000 | < 100 | O=c1c(-c2c(F)cccc2Cl)cc2cnc(Nc3ccc(N4CCOCC4)cc3)nc2n1OC[C@@H](O)CO [Compound 148] |
| < 1000 | < 100 | O=c1c(-c2c(F)cccc2Cl)cc2cnc(Nc3ccc(N4CCOCC4)cc3)nc2n1OCC1CCOCC1 [Compound 143] |
| < 1000 | < 100 | COn1c(=O)c(-c2c(F)cccc2Cl)cc2cnc(Nc3ccc(C4CCNCC4)cc3)nc21 [Compound 222, 6-(2-Chloro-6-fluorophenyl)-8-methoxy-2-(4-(piperidin-4-yl)phenyl)-amino-pyrido[2,3-d]pyrimidin-7-one] |
| < 1000 | < 100 | COn1c(=O)c(-c2c(F)cccc2Cl)cc2cnc(Nc3ccc(N4CCNCC4)c(F)c3)nc21 [Compound 211, 6-(2-Chloro-6-fluorophenyl)-2-(3-fluoro-4-piperazinophenyl)-amino-8-methoxy-pyrido[2,3-d]pyrimidin-7-one] |
| < 1000 | < 500 | COn1c(=O)c(-c2c(Cl)cccc2Cl)cc2cnc(Nc3ccc(N4CCN(S(C)(=O)=O)CC4)cc3)nc21 [Compound 200, 6-(2,6-Dichlorophenyl)-8-methoxy-2-(4-(4-methylsulfonyl)piperazino-phenyl)-amino-pyrido[2,3-d]pyrimidin-7-one] |
| < 10000 | > 1000 | COn1c(=O)c(-c2c(Cl)cccc2Cl)cc2cnc(Nc3ccc(Br)cc3)nc21 [Compound 191, 2-(4-Bromophenyl)amino-6-(2,6-dichlorophenyl)-8-methoxy-pyrido[2,3-d]pyrimidin-7-one] |
| < 1000 | < 100 | COCCOn1c(=O)c(-c2c(Cl)cccc2Cl)cc2cnc(Nc3ccc(N4CCN(C(C)C)CC4)cc3)nc21 [Compound 205, 6-(2,6-Dichlorophenyl)-8-(2-methoxyethyl)oxy-2-(4-(4-(1-methylethyl)piperazino)phenyl)-amino-pyrido[2,3-d]pyrimidin-7-one] |
| < 1000 | < 500 | COCCOn1c(=O)c(-c2cc(NC(=O)c3ccccc3)ccc2Cl)cc2cnc(Nc3ccc(N4CCN(C)CC4)cc3)nc21 [Compound 106, 6-(5-Benzoylamino-2-chloro-phenyl)-8-(2-methoxyethyl)oxy-2-(4-(4-methylpiperazino)-phenylamino)-pyrido[2,3-d]pyrimidin-7-one] |
| < 1000 | < 100 | COn1c(=O)c(-c2c(Cl)cccc2Cl)cc2cnc(Nc3ccc(CN4CC[C@@H](O)C4)cc3)nc21 [Compound 179, 6-(2,6-Dichlorophenyl)-2-(4-(3-(R)-hydroxypyrrolidinomethyl)phenyl)-amino-8-methoxy-pyrido[2,3-d]pyrimidin-7-one] |
| < 1000 | < 500 | COn1c(=O)c(-c2c(Cl)cccc2Cl)cc2cnc(Nc3ccc(CN4CCC[C@H]4CO)cc3)nc21 [Compound 169, 6-(2,6-Dichlorophenyl)-2-(4-(2-(S)-hydroxymethyl-pyrrolidinomethyl)phenyl)-amino-8-methoxy-pyrido[2,3-d]pyrimidin-7-one] |
| < 1000 | < 100 | COn1c(=O)c(-c2c(Cl)cccc2Cl)cc2cnc(Nc3ccc(NS(C)(=O)=O)cc3)nc21 [Compound 111, 6-(2,6-Dichlorophenyl)-8-methoxy-2-(4-methylsulfonylaminophenyl)-amino-pyrido[2,3-d]pyrimidin-7-one] |
| < 1000 | < 100 | O=c1c(-c2c(F)cccc2Cl)cc2cnc(Nc3ccc(N4CCOCC4)cc3)nc2n1OC[C@@H]1CCNC1 [Compound 149] |
| < 1000 | < 100 | COn1c(=O)c(-c2c(Cl)cccc2Cl)cc2cnc(Nc3ccc(OCCO)cc3)nc21 [Compound 89, 6-(2,6-Dichlorophenyl)-2-(4-(2-hydroxyethyl)oxyphenyl) amino-8-methoxy-pyrido[2,3-d]pyrimidin-7-one] |
